Measurements reported in US20100279997A1, “ANALGESIC THAT BINDS FILAMIN A” (priority 2009, published 2010).
Where two headings read alike, the source gives them in different places.

How the values were obtained:
filamin A = filamin A (Homo sapiens, UniProt P21333); conditions: Wang et al, 2008 PLoS One 3:e1554; read-out: affinity of binding to filamin A; cited from earlier work
μ opiate receptor (MOR) = target: T1, μ opiate receptor (MOR) (Rattus norvegicus, UniProt P33535); assay: MOR agonist activity, [35S]GTPγS binding assay using striatal membranes; assay type: biochemical; conditions: for [35S]GTPγS binding to Gαo, FLNA-binding compound as agonist 0.1 μM: 0.1 μM compound; for [35S]GTPγS binding to Gαo, FLNA-binding compound as agonist 0.1 μM / [35S]GTPγS binding to Gαo, FLNA-binding compound as agonist 1 μM: striatal membranes; for [35S]GTPγS binding to Gαo, FLNA-binding compound as agonist 1 μM + BFNA: 1 μM compound + 1 μM β-funaltrexamine; for [35S]GTPγS binding to Gαo, FLNA-binding compound as agonist 1 μM: 1 μM compound; for % DAMGO + BFNA: relative to DAMGO + BFNA; for % DAMGO (0.1 μM) / % DAMGO (1 μM): relative to DAMGO
T1 construct: from tissue; host or cells: striatal tissue (membrane preparation)

[1] = tested on: MOR coupling to Gαs/olf and Gαo; assay: Relative Gs/Go switching, MOR-G protein coupling in organotypic striatal slice cultures; assay type: cell-based; conditions: rat striatal slices
Procedure: Striatal slices ([…]) were prepared using a McIlwain tissue chopper (Mickle Laboratory Engineering Co., Surrey, UK). Slices were carefully transferred to sterile, porous culture inserts (0.4 μm, Millicell-CM) using the rear end of a glass Pasteur pipette. Each culture insert unit contained 2 slices and was placed into one well of the 12-well culture tray. […] The pH value was adjusted to 7.2 with HEPES buffer.
Cultures were first incubated for 2 days to minimize the impact of injury from slice preparation. Incubator settings throughout the experiment were 36° C. with 5% CO2.
Slices were returned to culture medium with normal serum after each drug exposure. Tissues were harvested 16 hours after the last drug exposure by centrifugation.
For determination of MOR-G protein coupling, slices were homogenized to generate synaptic membranes. […] Following centrifugation, striatal membrane lysates were immunoprecipitated with immobilized anti-Gαs/olf or -Gαo conjugated with immobilized protein G-agarose beads. The level of MOR in anti-Gαs/olf or -Gαo immunoprecipitates was determined by Western blotting using specific anti-MOR antibodies.

[2] = target: Bn-VAKGL pentapeptide of filamin A (FLNA) (Homo sapiens, UniProt P21333); assay: FITC-NLX-based FLNA screening assay (FLNA peptide binding assay)
Procedure: The final assay volume is 100 μl.
Compounds are tested in triplicate or quadruplicate.

[3] = Mouse hot-water tail-flick test; assay type: in vivo
Procedure: The mouse “tail flick” test was used to assay the relative antinociceptive activity of compositions containing a compound to be assayed. This assay was substantially that disclosed by Xie et al., 2005 J. Neurosci 25:409-416.
The mouse hot-water tail-flick test was performed by placing the distal third of the tail in a water bath maintained at 52° C. The latency until tail withdrawal from the bath was determined and compared among the treatments. A 10 second cutoff was used to avoid tissue damage. Data are converted to percentage of antinociception by the following formula: (response latency−baseline latency)/(cutoff−baseline latency)×100 to generate dose-response curves. […] Relative potency was determined as a ratio of the A50 values.
To assess tolerance to the antinociceptive effect, the compound was administered twice daily for 7 days at an A90 dose (dose that results in a 90% antinociceptive effect in the 52° C. warm-water tail-flick test), and the tail-flick test was performed daily after the a.m. dose.

T1 sequence (P33535 whole entry): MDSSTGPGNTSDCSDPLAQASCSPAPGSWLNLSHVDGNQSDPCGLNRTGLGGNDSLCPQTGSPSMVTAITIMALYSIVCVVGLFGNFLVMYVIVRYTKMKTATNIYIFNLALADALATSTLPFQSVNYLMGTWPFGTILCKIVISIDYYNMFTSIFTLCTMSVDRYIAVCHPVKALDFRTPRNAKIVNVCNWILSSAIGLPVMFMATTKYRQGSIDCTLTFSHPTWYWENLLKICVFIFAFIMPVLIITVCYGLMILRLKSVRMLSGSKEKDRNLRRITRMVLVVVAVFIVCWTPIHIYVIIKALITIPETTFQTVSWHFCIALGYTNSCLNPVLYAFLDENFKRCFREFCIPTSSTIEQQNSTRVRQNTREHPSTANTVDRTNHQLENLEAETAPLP
filamin A, sequence (P21333 whole entry): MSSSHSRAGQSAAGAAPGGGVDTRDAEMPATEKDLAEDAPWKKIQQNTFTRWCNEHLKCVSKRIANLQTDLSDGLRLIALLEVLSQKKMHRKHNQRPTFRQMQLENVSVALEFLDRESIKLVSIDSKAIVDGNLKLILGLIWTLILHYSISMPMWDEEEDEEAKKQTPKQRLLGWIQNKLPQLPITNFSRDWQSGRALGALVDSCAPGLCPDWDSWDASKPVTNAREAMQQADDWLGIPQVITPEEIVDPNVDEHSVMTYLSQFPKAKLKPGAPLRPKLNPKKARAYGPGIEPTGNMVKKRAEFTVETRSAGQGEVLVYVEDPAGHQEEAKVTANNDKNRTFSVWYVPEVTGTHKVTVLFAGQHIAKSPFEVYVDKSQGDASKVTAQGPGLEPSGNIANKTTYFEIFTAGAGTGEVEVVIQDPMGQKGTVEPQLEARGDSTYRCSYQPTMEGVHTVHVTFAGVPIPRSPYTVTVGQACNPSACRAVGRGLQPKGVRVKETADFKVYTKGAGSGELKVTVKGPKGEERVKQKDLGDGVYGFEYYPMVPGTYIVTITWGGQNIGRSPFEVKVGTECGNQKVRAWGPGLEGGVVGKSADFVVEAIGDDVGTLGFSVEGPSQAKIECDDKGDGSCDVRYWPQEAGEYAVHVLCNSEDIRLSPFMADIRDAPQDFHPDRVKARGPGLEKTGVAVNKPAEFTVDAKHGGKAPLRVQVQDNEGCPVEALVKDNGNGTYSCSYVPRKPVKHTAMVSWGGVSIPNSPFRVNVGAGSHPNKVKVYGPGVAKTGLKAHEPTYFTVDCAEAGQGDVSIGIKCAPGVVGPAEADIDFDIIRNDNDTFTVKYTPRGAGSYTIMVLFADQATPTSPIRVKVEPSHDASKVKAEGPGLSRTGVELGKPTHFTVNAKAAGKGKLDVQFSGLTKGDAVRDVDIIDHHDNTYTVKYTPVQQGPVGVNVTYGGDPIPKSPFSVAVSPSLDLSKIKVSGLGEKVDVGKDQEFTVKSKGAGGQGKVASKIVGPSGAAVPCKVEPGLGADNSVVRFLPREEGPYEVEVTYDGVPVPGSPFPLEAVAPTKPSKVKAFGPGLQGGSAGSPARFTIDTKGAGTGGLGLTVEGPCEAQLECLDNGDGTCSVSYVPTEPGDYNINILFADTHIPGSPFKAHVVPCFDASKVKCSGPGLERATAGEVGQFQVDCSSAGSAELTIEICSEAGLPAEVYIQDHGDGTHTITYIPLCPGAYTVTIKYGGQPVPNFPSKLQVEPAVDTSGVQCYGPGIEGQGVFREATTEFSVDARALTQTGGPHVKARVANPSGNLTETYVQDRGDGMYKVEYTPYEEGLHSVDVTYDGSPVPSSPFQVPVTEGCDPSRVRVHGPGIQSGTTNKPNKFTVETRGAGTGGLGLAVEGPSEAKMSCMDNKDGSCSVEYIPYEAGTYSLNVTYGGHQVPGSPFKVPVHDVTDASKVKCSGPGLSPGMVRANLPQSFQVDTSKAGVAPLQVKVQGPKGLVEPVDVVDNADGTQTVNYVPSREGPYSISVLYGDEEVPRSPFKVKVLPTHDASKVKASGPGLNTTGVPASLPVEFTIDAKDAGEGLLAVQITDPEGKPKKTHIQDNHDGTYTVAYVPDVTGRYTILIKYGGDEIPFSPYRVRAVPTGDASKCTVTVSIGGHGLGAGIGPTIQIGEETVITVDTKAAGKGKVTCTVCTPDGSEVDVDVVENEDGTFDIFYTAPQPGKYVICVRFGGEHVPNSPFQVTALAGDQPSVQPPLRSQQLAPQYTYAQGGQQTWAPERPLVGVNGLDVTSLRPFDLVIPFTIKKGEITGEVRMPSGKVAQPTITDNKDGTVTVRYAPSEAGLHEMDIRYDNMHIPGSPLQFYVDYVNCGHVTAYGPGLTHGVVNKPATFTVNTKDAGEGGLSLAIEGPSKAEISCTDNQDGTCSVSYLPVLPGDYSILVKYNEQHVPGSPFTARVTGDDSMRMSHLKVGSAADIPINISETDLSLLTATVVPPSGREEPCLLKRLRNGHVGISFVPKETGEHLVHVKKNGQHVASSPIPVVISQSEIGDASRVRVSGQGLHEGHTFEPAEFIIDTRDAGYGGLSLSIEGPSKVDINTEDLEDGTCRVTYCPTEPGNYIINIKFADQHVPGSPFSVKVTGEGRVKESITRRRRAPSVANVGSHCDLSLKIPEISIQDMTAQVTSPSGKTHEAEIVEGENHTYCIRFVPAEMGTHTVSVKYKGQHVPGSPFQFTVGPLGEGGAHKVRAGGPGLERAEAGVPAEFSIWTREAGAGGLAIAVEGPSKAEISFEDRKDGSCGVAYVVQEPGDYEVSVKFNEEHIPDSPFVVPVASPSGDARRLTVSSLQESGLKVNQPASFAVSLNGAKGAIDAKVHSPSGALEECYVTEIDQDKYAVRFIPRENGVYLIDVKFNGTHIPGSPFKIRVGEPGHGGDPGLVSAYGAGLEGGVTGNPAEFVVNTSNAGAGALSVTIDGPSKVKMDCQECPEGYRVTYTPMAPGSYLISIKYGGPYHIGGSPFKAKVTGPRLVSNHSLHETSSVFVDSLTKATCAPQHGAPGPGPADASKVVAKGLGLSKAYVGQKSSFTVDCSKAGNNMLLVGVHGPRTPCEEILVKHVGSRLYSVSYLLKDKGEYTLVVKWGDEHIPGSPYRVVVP

O=C1CC[C@@]2(O)[C@H]3Cc4ccc(O)c5c4[C@@]2(CCN3CC2CC2)[C@H]1O5 [NTX, naltrexone]
Kd (filamin A): ~4 pM

CC1CCC(C(C)C)C(OCC(O)CN2CC(C)OC(C)C2)C1 (stereo not shown) [Compound 3333]
[35S]GTPγS binding to Gαo, FLNA-binding compound as agonist 0.1 μM (μ opiate receptor (MOR); listed as A3333): 170.7% | [35S]GTPγS binding to Gαo, FLNA-binding compound as agonist 1 μM + BFNA (μ opiate receptor (MOR); listed as A3333): 65.9% | [35S]GTPγS binding to Gαo, FLNA-binding compound as agonist 1 μM (μ opiate receptor (MOR); listed as A3333): 328.3% | Go (MOR in anti-Gαo immunoprecipitate), average ([1]; 10 μM): 1426.3 | Gs/Go-Coupled Ratio, average ([1]; 10 μM): 0.761 | Gs/olf (MOR in anti-Gαs/olf immunoprecipitate), average ([1]; 10 μM): 1079.0 | Go (MOR in anti-Gαo immunoprecipitate), average ([1]; 100 μM): 1418.8 | Gs/Go-Coupled Ratio, average ([1]; 100 μM): 0.756 | Gs/olf (MOR in anti-Gαs/olf immunoprecipitate), average ([1]; 100 μM): 1064.8

CC1CCC(C(C)C)C(OCC(O)CN2CCc3ccccc32)C1 (stereo not shown) [Compound A0065]
[35S]GTPγS binding to Gαo, FLNA-binding compound as agonist 0.1 μM (μ opiate receptor (MOR)): 197.6% | [35S]GTPγS binding to Gαo, FLNA-binding compound as agonist 1 μM + BFNA (μ opiate receptor (MOR)): 44.9% | [35S]GTPγS binding to Gαo, FLNA-binding compound as agonist 1 μM (μ opiate receptor (MOR)): 266.8% | % DAMGO + BFNA (μ opiate receptor (MOR)): 112.5% | % DAMGO (0.1 μM) (μ opiate receptor (MOR)): 126.6% | % DAMGO (1 μM) (μ opiate receptor (MOR)): 115.7% | inhibition at 0.01 µM ([2]; read-out: Percent inhibition of FITC-NLX binding, 0.01 μM): 38.7% | inhibition at 0.1 µM ([2]; read-out: Percent inhibition of FITC-NLX binding, 0.1 μM): 50% | inhibition at 1 µM ([2]; read-out: Percent inhibition of FITC-NLX binding, 1 μM): 50.8% | mean maximum antinociception ([3]; oral, 56 mg/kg): about 25%

C=CCN1CC[C@]23c4c5ccc(O)c4O[C@H]2C(=O)CC[C@@]3(O)[C@H]1C5 [NLX, naloxone]
Kd (filamin A): ~4 pM

OC(COc1ccccc1Br)CN1CCN(CCN2CCOCC2)CC1 (stereo not shown) [Compound A0064]
[35S]GTPγS binding to Gαo, FLNA-binding compound as agonist 0.1 μM (μ opiate receptor (MOR)): 219.2% | [35S]GTPγS binding to Gαo, FLNA-binding compound as agonist 1 μM + BFNA (μ opiate receptor (MOR)): 43.7% | [35S]GTPγS binding to Gαo, FLNA-binding compound as agonist 1 μM (μ opiate receptor (MOR)): 262.9% | % DAMGO + BFNA (μ opiate receptor (MOR)): 126.7% | % DAMGO (0.1 μM) (μ opiate receptor (MOR)): 127.4% | % DAMGO (1 μM) (μ opiate receptor (MOR)): 119.7% | inhibition at 0.01 µM ([2]; read-out: Percent inhibition of FITC-NLX binding, 0.01 μM, 0.01 μM compound, 10 nM FITC-NLX): 41.8% | inhibition at 0.1 µM ([2]; read-out: Percent inhibition of FITC-NLX binding, 0.1 μM, 0.1 μM compound, 10 nM FITC-NLX): 46.2% | inhibition at 1 µM ([2]; read-out: Percent inhibition of FITC-NLX binding, 1 μM, 1 μM compound, 10 nM FITC-NLX): 53.6% | mean maximum antinociception ([3]; 32 mg/kg): about 50% | time of maximum antinociception ([3]; 32 mg/kg): 30 to 50 min

CC1CN(CC(O)COc2ccc(Br)c(F)c2)CC(C)O1 (stereo not shown) [Compound A0041]
[35S]GTPγS binding to Gαo, FLNA-binding compound as agonist 0.1 μM (μ opiate receptor (MOR)): 212.7% | [35S]GTPγS binding to Gαo, FLNA-binding compound as agonist 1 μM + BFNA (μ opiate receptor (MOR)): 50.6% | [35S]GTPγS binding to Gαo, FLNA-binding compound as agonist 1 μM (μ opiate receptor (MOR)): 283.6% | mean maximum antinociception ([3]; 32 mg/kg): about 12% | time of maximum antinociception ([3]; 32 mg/kg): 10 to 15 min
